Holding throughout (assay): NCI tumour cell line growth inhibition, 48 h
Assay [1] concerns SK-MEL-5 melanoma.
Assay [2] has as its system HOP-92 NSCLC.
Assay [3] has as its system CAKI-1 renal.
The subject of assay [4] is HOP-62 NSCLC.
Assay [5] deals with EKVX NSCLC.
In assay [6] the test system is UACC-62 melanoma.
Assay [7] relates to HT29 colon.
The test system of assay [8] is OVCAR-8 ovarian.
Assay [9] relates to U251 CNS.
In assay [10] the test system is SNB-75 CNS.

Structures are written as SMILES. Values joined by “and” are separate entries in the source; they are usually repeats but may differ in a detail not shown here. Equal entries are not always repeated.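 Step 1: Grow cells in 96-well plates. Step 2: Expose to compound for 48 hours at 5 concentrations. Step 3: Interpolate endpoints linearly; if unreached, use highest concentration. Abbreviation: GI50, concentration required for 50% inhibition of growth. TGI denotes the concentration required for complete inhibition of growth.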

As to `COc1cccc2c1C(=O)c1c(O)c3c(c(O)c1C2=O)C[C@@](O)(C(C)=O)C[C@@H]3OC1CC(O)C(O)C(C)O1` (some centres not stated), the TGI in assay [1] is 5.06 µM and 2.78 µM; in [2], 9.67 µM and 18.8 µM; in [3], 5.57 µM and 4.94 µM; in [4], 7.09 µM and 1.78 µM; in [5] it was 27.2 µM.

Turning to `CSC(=NC#N)S/C=C/C(=O)c1cccc2ccccc12`, the GI50 in assay [6] is 27.7 µM; in assay [1], 23.1 µM; in [7], 53.9 µM; in assay [2] it was 19.3 µM; in assay [3] it was 14.7 µM; in assay [8], 31.9 µM. Moreover, the values for the GI50 in [4], in assay [9] and in assay [5] were 34 µM, 31.3 µM and 26.4 µM, respectively. For the same compound, the TGI was above 100 µM in [6]; 55.4 µM in [1]; above 100 µM in assay [7]; 66.6 µM in assay [2]; 33.9 µM in assay [3]; above 100 µM in assay [8]. For the same compound, the TGI is 61.2 µM in assay [4], above 100 µM in assay [9] and above 100 µM in assay [5].

Regarding `CCCCCCCC(=O)NS(=O)(=O)c1ccccc1`, the TGI in assay [6], in [1], in assay [10], in assay [7], in assay [3] and in [8] was above 100 µM in each case. Also, the TGI in assay [4], in assay [9] and in [5] was above 100 µM each time.

On to `COc1cc2c(c(OC)c1OC)C(=O)c1c-2n(CCCN=[N+]=[N-])c(=O)c2cc([N+](=O)[O-])ccc12`, for which the GI50 was 39.7 µM in [6]; above 100 µM in assay [1]; 19.4 µM in assay [10]; above 100 µM in assay [7]; 60.6 µM in assay [3]; 72.3 µM in [8]. Besides, the GI50 was 30.7 µM in [4], 58 µM in assay [9] and above 100 µM in assay [5]. For the same compound, the TGI was above 100 µM in assay [6]; above 100 µM in assay [1]; 54.9 µM in assay [10]; above 100 µM in assay [7]; above 100 µM in assay [3]; above 100 µM in assay [8]. In addition, the TGI in [4], in assay [9] and in [5] was above 100 µM in each case.

Consider `CC(=O)Oc1ccccc1C(=O)NCCC[Se]C#N`, for which the GI50 in [10] is 1.88 µM; in assay [7], 3.51 µM; in [2] it was 1.49 µM; in assay [3] it was 1.97 µM; in assay [8], 1.95 µM; in assay [4] it was 1.51 µM. The GI50 in assay [9] is 1.6 µM. For the same compound, the TGI in assay [10] came out at 4.92 µM; in assay [7], 11.2 µM; in assay [2], 3.05 µM; in [3], 3.94 µM; in assay [8] it was 4.1 µM; in assay [4], 2.92 µM. In assay [9], the TGI worked out at 2.95 µM.

In the case of `C[n+]1cc2cc3c(cc2c2ccccc21)OCO3`, the GI50 was 3.97 µM in assay [6]; 2.71 µM in assay [1]; 2.22 µM in assay [10]; 3.77 µM in [7]; 2.77 µM in assay [2]; 46.4 µM in [3]. Moreover, the GI50 was 3.04 µM in assay [8], 6.62 µM in assay [4] and 1.33 µM in assay [9]. The TGI in assay [6] is 16.4 µM; in assay [1], 14.3 µM; in assay [10] it was 9.6 µM; in [7] it was 23 µM; in assay [2], 23.8 µM; in [3], above 100 µM. The TGI was determined as 30.5 µM in assay [8], 43.2 µM in [4] and 11.3 µM in assay [9].

As to `Clc1ccc(-c2nc(C(Cl)Cl)nc3cc(-c4ccccc4)nn23)cc1`, the GI50 was above 50 µM in assay [1]; 0.957 µM in assay [10]; 0.751 µM in assay [7]; 1.25 µM in [2]; 1.44 µM in assay [8]; 1.22 µM in [4]. Moreover, the GI50 in [9] was 1.12 µM. Moreover, the TGI in assay [1] is above 50 µM; in [10], above 50 µM; in assay [7], above 50 µM; in assay [2], above 50 µM; in assay [8], above 50 µM; in assay [4], 4.57 µM. In addition, the TGI in assay [9] was above 50 µM.

Consider `C/C=C/C=C/CCCCCCCCCCCCC[C@]1(OC)C=CC(CC(=O)OC)OO1` (some centres not stated), for which the TGI in [6] is 29.8 µM; in [1], 31.1 µM; in assay [10], 31.2 µM; in [7], 48.1 µM; in assay [3] it was 31.1 µM; in assay [8], 37.7 µM. For the same compound, the results for the TGI in [4] and in assay [5] were above 100 µM and 57.6 µM, respectively. In addition, the GI50 is 21.9 µM in [7]; 17.1 µM in [3]; 17.6 µM in assay [8]; 43.9 µM in assay [4]; 26.3 µM in assay [5].

For the compound `Cc1cc(S(=O)(=O)Nc2nc3ccccc3[nH]2)c(SCc2ccccc2)cc1Cl`, the GI50 in [6] was above 100 µM; in assay [1], above 100 µM; in [2] it was 62.2 µM; in assay [3] it was 2.1 µM; in [8], 37.5 µM; in assay [4] it was 22.7 µM. The GI50 is 14.9 µM in assay [9] and above 100 µM in [5]. Further, the TGI is above 100 µM in [6]; above 100 µM in assay [1]; above 100 µM in [2]; 6.1 µM in [3]; above 100 µM in assay [8]; above 100 µM in assay [4]. The results for the TGI in assay [9] and in [5] were 50.7 µM and above 100 µM, respectively.

With `Cc1nnc2n1N=C(c1ccc(-c3ccc([N+](=O)[O-])cc3)o1)CS2`, the TGI in assay [6], in assay [10], in assay [2], in assay [3], in assay [8] and in [4] was above 100 µM in each case. The compound also returned a TGI in assay [9] above 100 µM.

These data come from PubChem BioAssay (NCI).
